{
  "source": "patent US20250000834A1",
  "about": "“COMPOSITIONS AND METHODS FOR TARGETING GPCR FOR THE PREVENTION AND TREATMENT OF PAIN” (Duke University, priority 2021, published 2025)",
  "key": {"[1]": {"test_system": "Kir4.1 potassium channels in SGCs", "test": "Patch-clamp recordings of K+ currents in SGCs of whole-mount DRG", "assay_type": "cell-based, mouse", "description": "Patch-clamp recordings in SGCs of whole-mount DRG: Under urethane anesthesia, mice were rapidly euthanized, followed by careful isolation of lumbar DRGs placed in the oxygenated artificial cerebral spinal fluid (aCSF). DRGs were briefly digested (20 min) using an enzymatic mixture consisting of collagenase A (1 mg/mL) and 0.32 mL Trypsin (0.25% original solution). Intact DRG were then incubated in aCSF oxygenated with 95% O2 and 5% CO2 at 34° C. Following incubation, DRG were transferred to a recording chamber. Isolated DRGs were transferred to a recording chamber continuously perfused (˜3 ml/min) with aCSF. SGCs in whole mouse DRGs could be visualized using a 40× water-immersion objective on an Olympus BX51WI microscope (Olympus Corp., Shinjuku, Japan). The round or fusiform-shaped cell bodies of SGCs were small (<10 μm) but visible near the edges of DRG neurons. Patch pipettes (Chase Scientific Glass Inc., Ramsey, MN) were pulled and filled with a pipette solution containing: 126 mM potassium gluconate, 10 mM NaCl, 1 mM MgCl2, 10 mM EGTA, 2 mM Na-ATP, and 0.1 mM Mg-GTP, adjusted to pH 7.3 with KOH. The resistance of pipettes was 10-12 MΩ. A Whole-cell patch-clamp configuration was made on SGCs at room temperature using a Multiclamp 700B amplifier (Axon Instruments, Union City, CA). Under voltage clamp, at a holding potential of −80 mV, inward or outward currents are triggered by voltage steps of −160 to +40 mV, with 20 mV increment in 200 ms (H. Zhang et al., Altered functional properties of satellite glial cells in compressed spinal ganglia. Glia 57, 1588-1599 (2009)). To isolate inwardly rectifying potassium current (Kir), potassium currents from the same cells were recorded in the absence and presence of 100 μM extracellular barium, which blocks the Kir4.1 channel (C. A. Doupnik, et al, The inward rectifier potassium channel family. Curr Opin Neurobiol 5, 268-277 (1995); X. Tong et al., Astrocyte Kir4.1 ion channel deficits contribute to neuronal dysfunction in Huntington's disease model mice. Nat Neurosci 17, 694-703 (2014)). The Kir4.1 currents were obtained by digitally subtracting those currents in the absence and presence of barium.\nKir4.1 potassium channels are the predominant potassium channels in SGCs and are chiefly responsible for the potassium currents in SGCs. Dysregulation of SGC Kir4.1 contributes to the pathogenesis of pain (M. Hanani, D. C. Spray, Emerging importance of satellite glia in nervous system function and dysfunction. Nat Rev Neurosci 21, 485-498 (2020)). SGC K^+ currents were recorded by conducting patch-clamp recordings in SGCs in whole-mount DRG preparation (data not shown; see U.S. Prov. No. 63/270,198, FIG. 7A), collected from WT mice, Gpr37l1^+/+ mice, and Gpr37l1^+/− mutant mice (FIG. 11A parts A-C)."}, "[2]": {"test_system": "STZ-induced mechanical allodynia in mice", "test": "Streptozotocin (STZ)-induced mechanical allodynia, von Frey paw withdrawal threshold", "assay_type": "in vivo, mouse", "conditions": "intrathecal 100 ng", "description": "Pain models and drug injection: Animal model of chemotherapy-induced peripheral neuropathy (CIPN) was induced by paclitaxel (Sigma-Aldrich (St. Louis, MO), T7191, diluted with sterile saline). A single injection of paclitaxel ([…]) was given by intraperitoneal injection. A single injection of paclitaxel may induce mechanical allodynia for 4-6 weeks (X. Luo et al., Macrophage Toll-like Receptor 9 Contributes to Chemotherapy-Induced Neuropathic Pain in Male Mice. J Neurosci 39, 6848-6864 (2019)). Animal model of […] neuropathy was induced by streptozotocin (STZ, Sigma-Aldrich (St. Louis, MO), S0130, diluted with sterile saline). A single injection of STZ (75 mg/kg) was given as previously described (N. C. Brigham et al., Controlled release of etoricoxib from poly(ester urea) films for post-operative pain management. J Control Release 329, 316-327 (2021)). For intrathecal (i.t.) injection of MaR1, a spinal cord puncture was made by a Hamilton micro-syringe (Hamilton, Reno, NV) with a 30-gauge needle between the L5 and L6 levels to deliver reagents (5 μl) to the cerebral spinal fluid (J. L. Hylden, G. L. Wilcox, Intrathecal morphine in mice: a new technique. Eur. J Pharmacol. 67, 313-316 (1980)).\nNociceptive behavior tests: Gpr37l1^+/+, Gpr37l1^+/−, or Gpr37l1^−/− mice were habituated to the testing environment for at least two days before the baseline testing. All the animal behaviors were tested blindly. Thermal and mechanical sensitivity was tested before and after the injection of paclitaxel (PTX, 6 mg/kg, IP) and streptozotocin (STZ, 75 mg/kg, IP). MaR1 was intrathecally injected 3 days after the STZ and PTX injection. […] The 50% paw withdrawal threshold was measured by Dixon's up-down method (W. J. Dixon, Efficient analysis of experimental observations. Annu Rev Pharmacol Toxicol 20, 441-462 (1980)). Thermal sensitivity was measured using a Hargreaves radiant heat apparatus (IITC Life Science, Woodland Hills, CA) (K. Hargreaves, et al., A new and sensitive method for measuring thermal nociception in cutaneous hyperalgesia. Pain 32, 77-88 (1988)). […]"}},
  "data": [
    {"smiles": "CC/C=C\\C/C=C\\C[C@H](O)\\C=C/C=C/C=C/[C@H](O)C/C=C\\CCC(=O)O", "note": "[MaR1, Maresin 1]", "values": [
      {"measurement": "effect on PTX-induced downregulation of K+ currents in SGCs", "setting": "[1]; 100 ng/ml co-applied with PTX, Gpr37l1+/+ DRG", "value": "significantly rescued"},
      {"measurement": "effect on K+ currents in SGCs", "setting": "[1]; 100 ng/ml with PTX, Gpr37l1 mutant (Gpr37l1+/−) DRG", "value": "completely abolished"},
      {"measurement": "effect on STZ-induced mechanical allodynia", "setting": "[2]; Gpr37l1+/+ WT mice, 3 days after STZ", "value": "reversed STZ-induced mechanical allodynia in all the mice"},
      {"measurement": "effect on STZ-induced mechanical allodynia", "setting": "[2]; Gpr37l1+/− mice", "value": "significantly reversed the mechanical allodynia in the majority"},
      {"measurement": "effect on STZ-induced mechanical allodynia", "setting": "[2]; Gpr37l1−/− mice", "value": "no significant effects"}
    ]}
  ]
}
